# Source: US6207399A, “Methods of determining endogenous thrombin potential (ETP) and thrombin substrates for use in said methods” (Hemker; Hendrik Coenraad, priority 1995, dated 2001)
# Key:
# [1] = molecular target: T1, euglobulin thrombin (Homo sapiens, UniProt P00734); experiment: Decay constants of thrombin in plasma; format: biochemical; settings: [S] 25 mM in plasma
# T1 construct: The euglobulin thrombin fraction was prepared from defibrinated human plasma; from tissue; host or cells: defibrinated human plasma (euglobulin fraction, acid precipitation, method of Josso and Prou-Wartelle)
# Procedure: (§1) To this mixture was added 10 μL of a thrombin preparation to achieve a final concentration of 100 nM. At regular time intervals (5-10 s) 10 μL samples were subsampled into 490 μL buffer B which contained 200 μM of S2238 to determine thrombin activity. After 2 min the reaction was stopped by adding 300 μL 1M citric acid. The moment of sampling and stopping were recorded on a personal computer with pushbutton-equipped pipettes. The optical density was then read at 405 nm and the obtained amidolytic activities were used to calculate the decay constants. The obtained decay constant is the sum of the decay constants of the reaction of thrombin with antithrombin III (k1) and α2 -macroglobulin (k2).
# as §1, with “Decay constants of thrombin in plasma: To 120 μL defibrinated plasma was added: 50 μL of buffer A which contained the substances to be tested. To” for “To”, “was” for “was then”
# [2] = system: thrombin generation in tissue factor triggered plasma; experiment: Manual determination of thrombin generation in plasma (subsampling method) and calculated prothrombinase activity; format: biochemical, human
# Procedure: Manual determination of thrombin generation in plasma: Extrinsic pathway: To 480 μL defibrinated plasma were added: 172 μL buffer A which contains the substrate at concentrations between 0 to 2000 μM and 20 μL of a 54 μM phospholipid solution (final concentration: 1.5 μM). After incubation of 4 min at 37° C., 24 μL tissue factor (undiluted) was added. Thrombin formation started at zero time by adding 24 μL of a 0.5 M CaCl2 solution (final concentration: 16.67 mM). At regular time intervals of 12 s samples of 10 μL were subsampled as described above. From the amidolytic activities thus obtained, the thrombin generation curve can be drawn. […] Intrinsic pathway: To 480 μL defibrinated plasma were added: 168 μL buffer A which contains the substrate at concentrations between 0 to 1000 μM and 48 μL Actin FS (undiluted). This mixture was intensively mixed and incubated for 4 min at 37° C. Thrombin generation was started at zero time by adding 24 μL of a 0.5 M CaCl2 solution (final concentration: 16.67 mM).
# Influence of the substrate on the prothrombinase-complex: With the obtained decay constants and from the curves obtained by the subsampling method we calculated the course of prothrombin conversion and the course of prothrombinase concentration.
# Manual determination of thrombin generation in plasma: Extrinsic pathway: To 480 μL defibrinated plasma were added: 172 μL buffer A which contained the substrate at concentrations between 0 to 2000 μM and 20 μL of a 54 μM phospholipid solution (final concentration: 1.5 μM). After incubation for 4 min at 37° C., 24 μL tissue factor (undiluted) was added. Thrombin formation started at zero time by adding 24 μL of a 0.5 M CaCl2 solution (final concentration: 16.67 mM). At regular time intervals of 12 s samples of 10 μL were subsampled as described above. From the amidolytic activities thus obtained, the thrombin generation curve can be drawn.
# Influence of the substrate on the prothrombinase-compzex: With the obtained decay constants and from the curves obtained by the subsampling method we calculated the course of prothrombin conversion and the course of prothrombinase concentration.
# [3] = system: thrombin formation in plasma; experiment: Continuous registration of the thrombin generation curve (continuous assay of ETP); format: biochemical, human; settings: 25 mM hydroxylamine
# Procedure: Continuous registration of the thrombin generation curve: Extrinsic pathway: In a polystyrene microcuvette were added: 400 μL defibrinated plasma, 20 μL of a 45 μM phospholipid solution (final concentration: 1.5 μM), 140 μL of buffer A which contains the substrate at the desired final concentration (100-2000 μM). After 4 min of incubation at 37° C., 20 μL tissue factor (undiluted) was added. Thrombin generation was started by adding 20 μL of a 0.5 M CaCl2 solution (final concentration: 16.67 mM); during the measurement the temperature was kept at 37° C. The optical density was monitored at 405 nm. From the obtained optical density curve, the first derivative was calculated. […] The optical density was measured at 37° C. at 405 nm during 20 min.
# Continuous registration of the thrombin generation curve: Extrinsic pathway: In a polystyrene microcuvette were added: 400 μL defibrinated plasma, 20 μL of a 45 μM phospholipid solution (final concentration: 1.5 μM) and 140 μL of buffer A which contains the substrate at the desired final concentration (500 μM). […] The optical density was monitored at 405 nm. From the obtained optical density curve, the first derivative was calculated giving the enzyme concentration during the measurement. […] The optical density was measured at 37° C. at 405 nm during 20 min. […] The optical density was measured at 37° C. at 405 nm during 25 min.
structure (smiles),measurement,setting,value
"NO [hydroxylamine, reference compound]","(k1,corr) = k1,corr /1.856",[1],0.585 min⁻¹
same,"k1,corr : k1 after correcting for k2,M and 0.170",[1],1.085 min⁻¹
same,k1 : AT-III dependent decay of thrombin,[1],1.253 min⁻¹
same,k2 : α2 M dependent decay of thrombin,[1],0.059 min⁻¹
same,koverall,[1],1.312 min⁻¹
same,t1/2,[1],31.70 s
same,"k2,M : k2 determined by the subsampling method",[2]; [S] 25 mM in plasma,0.057 min⁻¹
same,influence on the prothrombinase complex / coagulation cascade,[2]; calculated from decay constants and manual thrombin generation curves,did not influence the coagulation cascade
same,AA: amidolytic activity (maximum),[2]; hydroxylamine 25 mM,383.88 mOD/min
same,PT: prothrombinase concentration (maximum),[2]; hydroxylamine 25 mM,1227 mOD/min
same,T: thrombin concentration (maximum),[2]; hydroxylamine 25 mM,378.03 mOD/min
same,t: time point at which maximum of amidolytic activity is achieved,[2]; hydroxylamine 25 mM,72 s
same,t: time point at which maximum of prothrombinase concentration is achieved,[2]; hydroxylamine 25 mM,36 s
same,t: time point at which maximum of thrombin concentration is achieved,[2]; hydroxylamine 25 mM,72 s
same,residual amidolytic activity of the α2 M-thrombin complex,[3],substantially reduced
